The experiment addresses T1, human B1 (Homo sapiens, UniProt P46663).
T1 construct: host or cells: CHO-K1
T1 sequence (P46663 1-353): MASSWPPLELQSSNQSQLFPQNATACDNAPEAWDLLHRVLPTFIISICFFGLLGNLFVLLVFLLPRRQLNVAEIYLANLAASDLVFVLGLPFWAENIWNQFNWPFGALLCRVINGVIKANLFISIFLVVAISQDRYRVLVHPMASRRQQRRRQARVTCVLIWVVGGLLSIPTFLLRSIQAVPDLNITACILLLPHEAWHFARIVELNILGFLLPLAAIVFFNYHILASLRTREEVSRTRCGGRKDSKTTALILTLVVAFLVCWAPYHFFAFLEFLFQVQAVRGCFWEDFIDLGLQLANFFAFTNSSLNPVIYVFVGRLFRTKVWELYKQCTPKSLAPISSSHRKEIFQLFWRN
Nature of the experiment: Calcium flux assay for Bradykinin B1 antagonist, CHO-K1 cell line expressing human B1. As to conditions: CHO-K1 cells expressing human B1, agonist Lys-(Des-Arg)-Bradykinin, read-out: Potency (IC50 value against human B1). The class given is cell-based. The gist of the method: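 Inhibition of B1 agonist-evoked intracellular Ca2+ rise was followed by continuous fluorescence at 538 nm, with integrated, background-normalized signals plotted versus log compound concentration. Test compounds (eight 10-fold dilutions, triplicate, 1% DMSO final) were added 30 min at 25° C beforehand to Fluo-4AM-loaded human B1 CHO-K1 cells in pH 7.4 assay buffer.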

SMILES strings stand for the structures. Where a name gives a salt, the structure may show the parent alone. Where only a bound is given, the exact number is not on record here.

Consider 24 compounds from patent publication US8623859B2, “Bradykinin B1 antagonists” (Evotec AG, priority 2008, dated 2014).

On to `COc1cc(C)c(S(=O)(=O)N(C)Cc2nnc(C(=O)N3CCN(Cc4ccc(N5CCCC5)nc4)CC3)o2)c(C)c1` [Ex 261, 4-Methoxy-N,2,6-trimethyl-N-{[5-({4-[(6-pyrrolidin-1-ylpyridin-3-yl)methyl]piperazin-1-yl}carbonyl)-1,3,4-oxadiazol-2-yl]methyl}benzenesulfonamide trifluoroacetate], for which the IC50 is below 10 nM.
With `COc1cc(C)c(S(=O)(=O)N(C)Cc2nnc(C(=O)N3CCN(Cc4ccc(C(F)(F)F)nc4)CC3)o2)c(C)c1` [Ex 262, 4-Methoxy-N,2,6-trimethyl-N-({5-[(4-{[6-(trifluoromethyl)pyridin-3-yl]methyl}piperazin-1-yl)carbonyl]-1,3,4-oxadiazol-2-yl}methyl)benzenesulfonamide trifluoroacetate], the half-inhibitory concentration (IC50) was in the range of 100 to 1000 nM.
As for `COc1cc(C)c(S(=O)(=O)N(C)Cc2nnc(C(=O)N3CCN(CC4CCN(C(=O)OC(C)(C)C)CC4)CC3)o2)c(C)c1` [Ex 263, tert-Butyl 4-[(4-{[5-({[(4-methoxy-2,6-dimethylphenyl)sulfonyl](methyl)amino}methyl)-1,3,4-oxadiazol-2-yl]carbonyl}piperazin-1-yl)methyl]piperidine-1-carboxylate], the IC50 lay within 100 to 1000 nM.
As for `COc1cc(C)c(S(=O)(=O)N(C)Cc2nnc(C(=O)N3CCN(CC4CCN(C(C)C)CC4)CC3)o2)c(C)c1` [Ex 264, 4-Methoxy-N,2,6-trimethyl-N-({5-[(4-{[1-(1-methylethyl)piperidin-4-yl]methyl}piperazin-1-yl)carbonyl]-1,3,4-oxadiazol-2-yl}methyl)benzenesulfonamide trifluoroacetate], the figure is 100 to 1000 nM.
The figure for `COc1cc(C)c(S(=O)(=O)N(C)Cc2nnc(C(=O)N3CCN(CC4CCN(C5CCC5)CC4)CC3)o2)c(C)c1` [Ex 265, N-{[5-({4-[(1-Cyclobutylpiperidin-4-yl)methyl]piperazin-1-yl}carbonyl)-1,3,4-oxadiazol-2-yl]methyl}-4-methoxy-N,2,6-trimethylbenzenesulfonamide trifluoroacetate] is 100 to 1000 nM; for `COc1cc(C)c(S(=O)(=O)N(C)Cc2nnc(C(=O)N3CCN(CC4CCN(CC(C)(C)O)CC4)CC3)o2)c(C)c1` [Ex 266, N-({5-[(4-{[1-(2-Hydroxy-2-methylpropyl)piperidin-4-yl]methyl}piperazin-1-yl)carbonyl]-1,3,4-oxadiazol-2-yl}methyl)-4-methoxy-N,2,6-trimethylbenzenesulfonamide] it is 100 to 1000 nM.
As for `COc1cc(C)c(S(=O)(=O)N(C)Cc2nnc(C(=O)N(C)CCc3ccc(C4=NCCN4)cc3)o2)c(C)c1` [Ex 267, N-{2-[4-(4,5-Dihydro-1H-imidazol-2-yl)phenyl]ethyl}-5-({[(4-methoxy-2,6-dimethylphenyl)sulfonyl](methyl)amino}methyl)-N-methyl-1,3,4-oxadiazole-2-carboxamide], the figure is below 10 nM; as for `COc1cc(C)c(S(=O)(=O)N(C)Cc2nnc(C(=O)N(C)Cc3ccc(CN4CCCC4)cc3)o2)c(C)c1` [Ex 268, 5-({[(4-Methoxy-2,6-dimethylphenyl)sulfonyl](methyl)amino}methyl)-N-methyl-N-[4-(pyrrolidin-1-ylmethyl)benzyl]-1,3,4-oxadiazole-2-carboxamide trifluoroacetate], 10 to 100 nM.
Regarding `COc1cc(C)c(S(=O)(=O)N(C)Cc2nnc(C(=O)NCCc3ccc(C4=NCCN4)cc3)o2)c(C)c1` [Ex 269, N-{2-[4-(4,5-Dihydro-1H-imidazol-2-yl)phenyl]ethyl}-5-({[(4-methoxy-2,6-dimethylphenyl)sulfonyl](methyl)amino}methyl)-1,3,4-oxadiazole-2-carboxamide trifluoroacetate], the IC50 is below 10 nM.
The figure for `COc1cc(C)c(S(=O)(=O)N(C)Cc2nnc(C(=O)N3CCN(C4CCN(C)CC4)CC3)o2)c(C)c1` [Ex 270, 4-Methoxy-N,2,6-trimethyl-N-[(5-{[4-(1-methylpiperidin-4-yl)piperazin-1-yl]carbonyl}-1,3,4-oxadiazol-2-yl)methyl]benzenesulfonamide trifluoroacetamide] is 100 to 1000 nM; for `COc1cc(C)c(S(=O)(=O)N(Cc2nnc(C(=O)N3CCN(C4CCN(C)CC4)CC3)o2)C2CC2)c(C)c1` [Ex 271, N-Cyclopropyl-4-methoxy-2,6-dimethyl-N-[(5-{[4-(1-methylpiperidin-4-yl)piperazin-1-yl]carbonyl}-1,3,4-oxadiazol-2-yl)methyl]benzenesulfonamide] it is 10 to 100 nM.
As for `COc1cc(C)c(S(=O)(=O)N(Cc2nnc(C(=O)N3CCN(CC4CCN(C)CC4)CC3)o2)C2CC2)c(C)c1` [Ex 272, N-Cyclopropyl-4-methoxy-2,6-dimethyl-N-{[5-({4-[(1-methylpiperidin-4-yl)methyl]piperazin-1-yl}carbonyl)-1,3,4-oxadiazol-2-yl]methyl}benzenesulfonamide], the figure is below 10 nM.
In the case of `COc1cc(C)c(S(=O)(=O)N(Cc2nnc(C(=O)N3CCN(CCCN4CCCC4)CC3)o2)C2CC2)c(C)c1` [Ex 273, N-Cyclopropyl-4-methoxy-2,6-dimethyl-N-[(5-{[4-(3-pyrrolidin-1-ylpropyl)piperazin-1-yl]carbonyl}-1,3,4-oxadiazol-2-yl)methyl]benzenesulfonamide], the IC50 was below 10 nM.
As for `COc1cc(C)c(S(=O)(=O)N(Cc2nnc(C(=O)N3CCC(CCN4CCCC4)CC3)o2)C2CC2)c(C)c1` [Ex 274, N-Cyclopropyl-4-methoxy-2,6-dimethyl-N-[(5-{[4-(2-pyrrolidin-1-ylethyl)piperidin-1-yl]carbonyl}-1,3,4-oxadiazol-2-yl)methyl]benzenesulfonamide], the figure is below 10 nM.
The figure for `COc1cc(C)c(S(=O)(=O)N(Cc2nnc(C(=O)N3CCN(CC4CCCN(C)C4)CC3)o2)C2CC2)c(C)c1` (stereo not drawn) [Ex 275, N-Cyclopropyl-4-methoxy-2,6-dimethyl-N-{[5-({4-[(1-methylpiperidin-3-yl)methyl]piperazin-1-yl}carbonyl)-1,3,4-oxadiazol-2-yl]methyl}benzenesulfonamide] is 10 to 100 nM; for `COc1cc(C)c(S(=O)(=O)N(Cc2nnc(C(=O)N3CCN(CCCN(C)C)CC3)o2)C2CC2)c(C)c1` [Ex 276, N-Cyclopropyl-N-{[5-({4-[3-(dimethylamino)propyl]piperazin-1-yl}carbonyl)-1,3,4-oxadiazol-2-yl]methyl}-4-methoxy-2,6-dimethylbenzenesulfonamide] it is 10 to 100 nM.
The figure for `COc1cc(C)c(S(=O)(=O)N(Cc2nnc(C(=O)N3CCN(CCN4CCCC4)CC3)o2)C2CC2)c(C)c1` [Ex 277, N-Cyclopropyl-4-methoxy-2,6-dimethyl-N-[(5-{[4-(2-pyrrolidin-1-ylethyl)piperazin-1-yl]carbonyl}-1,3,4-oxadiazol-2-yl)methyl]benzenesulfonamide] is 10 to 100 nM.
On to `COc1cc(C)c(S(=O)(=O)N(C)Cc2nnc(C(=O)N3CCN(CC4CCCN(C)C4)CC3)o2)c(C)c1` (stereo not drawn) [Ex 278, 4-Methoxy-N,2,6-trimethyl-N-{[5-({4-[(1-methylpiperidin-3-yl)methyl]piperazin-1-yl}carbonyl)-1,3,4-oxadiazol-2-yl]methyl}benzenesulfonamide], for which the IC50 lay within 100 to 1000 nM.
For the compound `COc1cc(C)c(S(=O)(=O)N(C)Cc2nnc(C(=O)N3CCN(CCCN(C)C)CC3)o2)c(C)c1` [Ex 279, N-{[5-({4-[3-(Dimethylamino)propyl]piperazin-1-yl}carbonyl)-1,3,4-oxadiazol-2-yl]methyl}-4-methoxy-N,2,6-trimethylbenzenesulfonamide], the IC50 lay within 10 to 100 nM.
As for `COc1cc(C)c(S(=O)(=O)N(C)Cc2nnc(C(=O)N3CCC(CCN4CCCC4)CC3)o2)c(C)c1` [Ex 280, 4-Methoxy-N,2,6-trimethyl-N-[(5-{[4-(2-pyrrolidin-1-ylethyl)piperidin-1-yl]carbonyl}-1,3,4-oxadiazol-2-yl)methyl]benzenesulfonamide], the figure is 10 to 100 nM; as for `COc1cc(C)c(S(=O)(=O)N(Cc2nnc(C(=O)N(C)Cc3ccc(CN4CCCC4)cc3)o2)C2CC2)c(C)c1` [Ex 281, 5-({Cyclopropyl[(4-methoxy-2,6-dimethylphenyl)sulfonyl]amino}methyl)-N-methyl-N-[4-(pyrrolidin-1-ylmethyl)benzyl]-1,3,4-oxadiazole-2-carboxamide], below 10 nM.
The figure for `COc1cc(C)c(S(=O)(=O)N(C)Cc2nnc(C(=O)N(C)Cc3ccc(CN4CCC(OC)C4)cc3)o2)c(C)c1` (stereo not drawn) [Ex 282, 5-({[(4-Methoxy-2,6-dimethylphenyl)sulfonyl](methyl)amino}methyl)-N-{4-[(3-methoxypyrrolidin-1-yl)methyl]benzyl}-N-methyl-1,3,4-oxadiazole-2-carboxamide] is 100 to 1000 nM; for `COc1cc(C)c(S(=O)(=O)N(C)Cc2nnc(C(=O)N(C)Cc3ccc(CN4CCC(OC)CC4)cc3)o2)c(C)c1` [Ex 283, 5-({[(4-Methoxy-2,6-dimethylphenyl)sulfonyl](methyl)amino}methyl)-N-{4-[(4-methoxypiperidin-1-yl)methyl]benzyl}-N-methyl-1,3,4-oxadiazole-2-carboxamide] it is 10 to 100 nM; for `COc1cc(C)c(S(=O)(=O)N(C)Cc2nnc(C(=O)N(C)Cc3ccc(CN4CCCC(OC)C4)cc3)o2)c(C)c1` (stereo not drawn) [Ex 284, 5-({[(4-Methoxy-2,6-dimethylphenyl)sulfonyl](methyl)amino}methyl)-N-{4-[(3-methoxypiperidin-1-yl)methyl]benzyl}-N-methyl-1,3,4-oxadiazole-2-carboxamide] it is 100 to 1000 nM.

One may read the IC50 as the concentration that inhibits the measured activity by half.
